Assay results published in US20070048355A1, “Non-irritating solvent-borne polymeric coatings for application to the skin” (priority 2005, published 2007).

Tested on: freshly abraided skin on a finger knuckle
Assay: standard sting test on abraded finger knuckle skin
Assay type: in vivo, human
Settings: for stinging of aliphatic hydrocarbon diluent solvents (in words): neat alkane on abraded skin
Text: The preparations described above were applied to skin that had been carefully abraided shortly before testing to determine whether the stinging and discomfort caused by collodion application could be suppressed by one or more of these agents. The procedure used was to manually scour a finger knuckle using 100 grit garnet sandpaper just to the point of slight bleeding, and then allowing the skin to rest a minute or so until any discomfort, i.e., sensation of irritation, pain or heat, had disappeared prior to challenging the abrasion with a potential chemical irritant. The resultant stinging sensation was compared to that produced with the unmodified commercial New Skin™ collodion product (the “control”). Sting (also termed and described as “burning sensation”) was rated on a five level scale as follows: (−) no sting, (+/−) barely detectable sting, (+) slight sting, (++) moderate sting, (+++) strong sting. […] This method of testing and scoring the level or magnitude of the stinging sensation is referred to herein as the “sting test” or “standard sting test.”
Using the “standard sting test” described above, and similarly abraded skin on a finger knuckle, individual collodion ingredients were tested neat (undiluted). Accordingly, a droplet or two of the mixture or the chemical ingredient was placed on freshly abraided skin.
Several new chemicals and solvents of potential interest were tested, and others that were formerly tested (all in their neat state) were re-tested using the standard sting test procedure and accompanying scoring system described above. Applicant's strategy behind this testing was to find a true solvent or alternatively, a combination of true solvent and either co-solvent or diluent, that would have sufficient volatility to allow rapid drying of a collodion coating without causing stinging when applied to the skin.

[1] = additional testing and re-testing of chemicals and solvents in their neat state, standard sting test
[2] = individual collodion ingredients tested neat (undiluted), a droplet or two on freshly abraided skin

For `CC(C)=O` [Acetone], the “LEVEL OF STING” value [1] was “+++”.
For `CCCCCOC(C)=O` [Amyl Acetate (mixed isomers), Amyl Acetate], the “LEVEL OF STING” value [1] was “+/−” and the “LEVEL OF STING” value [2] was “+/−”.
For `CCOC(C)=O` [Ethyl Acetate], the “LEVEL OF STING” value (in vivo) was “+++”.
For `CCO` [Ethyl Alcohol], the “LEVEL OF STING” value [1] was “+++” and the “LEVEL OF STING” value [2] was “+++”.
For `CC(C)O` [Isopropyl Alcohol], the “LEVEL OF STING” value [1] was “++” and the “LEVEL OF STING” value [2] was “++”.
With `CC(=O)OC(C)C` [Isopropyl acetate] the “LEVEL OF STING” value [1] was “+”.
In the case of `COC(C)=O` [Methyl acetate], the “LEVEL OF STING” value [1] is reported as “+++”.
`CO` [Methyl alcohol] was tested, and the “LEVEL OF STING” value [1] was “+++”.
For `CCC(C)=O` [Methyl ethyl ketone], the “LEVEL OF STING” value [1] was “+++”.
`CC(CO)CO` [Methyl propanediol] was tested, and the “LEVEL OF STING” value [1] was “+”.
With `CCCC(C)=O` [Methyl propyl ketone] the “LEVEL OF STING” value [1] was “++”.
In the case of `CC(C)CO` [isobutyl alcohol], the “LEVEL OF STING” value [1] is reported as “+”.
For `CCCCOC(C)=O` [n-Butyl Acetate], the “LEVEL OF STING” value [1] was “+/−” and the “LEVEL OF STING” value [2] was “+/−”.
With `CCCCCCC` [n-Heptane] the “LEVEL OF STING” value [1] was “−” and the “stinging of aliphatic hydrocarbon diluent solvents (in words)” value (“stinging” for short) was “none of the aliphatic hydrocarbon diluent solvents that were tested caused any stinging”.
`CCCCCC` [n-Hexane] was tested, and the “LEVEL OF STING” value [1] was “−” and the “stinging” value was “none of the aliphatic hydrocarbon diluent solvents that were tested caused any stinging”.
For `CCCCCCCC` [n-Octane], the “LEVEL OF STING” value [1] was “−” and the “stinging” value was “none of the aliphatic hydrocarbon diluent solvents that were tested caused any stinging”.
With `CCCOC(C)=O` [n-Propyl acetate] the “LEVEL OF STING” value [1] was “+”.
For `CCCCCO` [n-amyl alcohol], the “LEVEL OF STING” value [1] was “+”.
In the case of `CCCCC` [n-pentane], the “stinging” value is reported as “none of the aliphatic hydrocarbon diluent solvents that were tested caused any stinging”.
With `CC(=O)OC(C)(C)C` [tert-Butyl acetate] the “LEVEL OF STING” value [1] was “+/−”.
Castor Oil was tested, and the “LEVEL OF STING” value (in vivo) was “−”.
For “Isohexane (e.g., 2-methyl pentane and other isomers)”, the “LEVEL OF STING” value [1] was “−”.
